Measurements from the kinase profiling compilation of Christmann-Franck et al. (2016).

Tests used:
Experiment in all cases: radiometric filter-binding kinase assay
[1] = system: AKT2 (human), P31751 [S474D]
AURKB (human) = AURKB (human) (UniProt Q96GD4)
CAMKK2 (human) = CAMKK2 (human) (UniProt Q96RR4)
CHEK1 (human) = CHEK1 (human) (UniProt O14757)
CHEK2 (human) = CHEK2 (human) (UniProt O96017)
EPHB4 (human) = EPHB4 (human) (UniProt P54760)
GCK (human) = GCK (human) (UniProt Q12851)
IGF1R (human) = IGF1R (human) (UniProt P08069)
IKBKB (human) = IKBKB (human) (UniProt O14920)
MAP2K1 (human) = MAP2K1 (human) (UniProt Q02750)
MAP3K1 (human) = MAP3K1 (human) (UniProt Q13233)
MAP3K5 (human) = MAP3K5 (human) (UniProt Q99683)
MAPK1 (human) = MAPK1 (human) (UniProt P28482)
MAPK10 (human) = MAPK10 (human) (UniProt P53779)
MAPK15 (human) = MAPK15 (human) (UniProt Q8TD08)
MAPK3 (human) = MAPK3 (human) (UniProt P27361)
MAPK9 (human) = MAPK9 (human) (UniProt P45984)
MAPKAPK2 (human) = MAPKAPK2 (human) (UniProt P49137)
MARK2 (human) = MARK2 (human) (UniProt Q7KZI7)
MINK1 (human) = MINK1 (human) (UniProt Q8N4C8)
MKNK1 (human) = MKNK1 (human) (UniProt Q9BUB5)
MKNK2 (human) = MKNK2 (human) (UniProt Q9HBH9)
NEK2 (human) = NEK2 (human) (UniProt P51955)
NTRK1 (human) = NTRK1 (human) (UniProt P04629)
PHKG1 (human) = PHKG1 (human) (UniProt Q16816)
PIM2 (human) = PIM2 (human) (UniProt Q9P1W9)
PKN2 (human) = PKN2 (human) (UniProt Q16513)
PRKAA1 or PRKAA2 (rat) = settings: accession and sequence are those of the human protein
PRKACA (human) = PRKACA (human) (UniProt P17612)
PRKCA (human) = PRKCA (human) (UniProt P17252)
RPS6KA1 KD1 KD2 (human) = RPS6KA1 KD1 KD2 (human) (UniProt Q15418)
SRC (human) = SRC (human) (UniProt P12931)
[2] = target: STK11 CAB39 STRADA (human) (UniProt Q9Y376+Q7RTN6+Q15831)
STK3 (human) = STK3 (human) (UniProt Q13188)
YES1 (human) = YES1 (human) (UniProt P07947)
YES1 (human), sequence (P07947 whole entry, looked up): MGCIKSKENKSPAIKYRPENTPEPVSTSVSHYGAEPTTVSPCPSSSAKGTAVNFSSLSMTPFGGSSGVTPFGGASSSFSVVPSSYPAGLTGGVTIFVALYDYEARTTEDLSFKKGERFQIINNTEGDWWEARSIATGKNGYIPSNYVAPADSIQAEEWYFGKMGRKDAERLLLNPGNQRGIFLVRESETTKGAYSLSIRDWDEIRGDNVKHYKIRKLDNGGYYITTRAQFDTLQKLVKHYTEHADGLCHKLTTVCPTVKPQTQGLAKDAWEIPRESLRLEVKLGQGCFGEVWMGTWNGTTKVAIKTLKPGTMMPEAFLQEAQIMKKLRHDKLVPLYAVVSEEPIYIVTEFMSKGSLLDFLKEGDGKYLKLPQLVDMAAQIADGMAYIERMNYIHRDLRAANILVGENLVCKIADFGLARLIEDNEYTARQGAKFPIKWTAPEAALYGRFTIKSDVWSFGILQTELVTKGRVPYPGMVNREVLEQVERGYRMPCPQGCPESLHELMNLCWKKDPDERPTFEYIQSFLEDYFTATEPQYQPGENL

IGF1R (human), sequence (P08069 whole entry, looked up): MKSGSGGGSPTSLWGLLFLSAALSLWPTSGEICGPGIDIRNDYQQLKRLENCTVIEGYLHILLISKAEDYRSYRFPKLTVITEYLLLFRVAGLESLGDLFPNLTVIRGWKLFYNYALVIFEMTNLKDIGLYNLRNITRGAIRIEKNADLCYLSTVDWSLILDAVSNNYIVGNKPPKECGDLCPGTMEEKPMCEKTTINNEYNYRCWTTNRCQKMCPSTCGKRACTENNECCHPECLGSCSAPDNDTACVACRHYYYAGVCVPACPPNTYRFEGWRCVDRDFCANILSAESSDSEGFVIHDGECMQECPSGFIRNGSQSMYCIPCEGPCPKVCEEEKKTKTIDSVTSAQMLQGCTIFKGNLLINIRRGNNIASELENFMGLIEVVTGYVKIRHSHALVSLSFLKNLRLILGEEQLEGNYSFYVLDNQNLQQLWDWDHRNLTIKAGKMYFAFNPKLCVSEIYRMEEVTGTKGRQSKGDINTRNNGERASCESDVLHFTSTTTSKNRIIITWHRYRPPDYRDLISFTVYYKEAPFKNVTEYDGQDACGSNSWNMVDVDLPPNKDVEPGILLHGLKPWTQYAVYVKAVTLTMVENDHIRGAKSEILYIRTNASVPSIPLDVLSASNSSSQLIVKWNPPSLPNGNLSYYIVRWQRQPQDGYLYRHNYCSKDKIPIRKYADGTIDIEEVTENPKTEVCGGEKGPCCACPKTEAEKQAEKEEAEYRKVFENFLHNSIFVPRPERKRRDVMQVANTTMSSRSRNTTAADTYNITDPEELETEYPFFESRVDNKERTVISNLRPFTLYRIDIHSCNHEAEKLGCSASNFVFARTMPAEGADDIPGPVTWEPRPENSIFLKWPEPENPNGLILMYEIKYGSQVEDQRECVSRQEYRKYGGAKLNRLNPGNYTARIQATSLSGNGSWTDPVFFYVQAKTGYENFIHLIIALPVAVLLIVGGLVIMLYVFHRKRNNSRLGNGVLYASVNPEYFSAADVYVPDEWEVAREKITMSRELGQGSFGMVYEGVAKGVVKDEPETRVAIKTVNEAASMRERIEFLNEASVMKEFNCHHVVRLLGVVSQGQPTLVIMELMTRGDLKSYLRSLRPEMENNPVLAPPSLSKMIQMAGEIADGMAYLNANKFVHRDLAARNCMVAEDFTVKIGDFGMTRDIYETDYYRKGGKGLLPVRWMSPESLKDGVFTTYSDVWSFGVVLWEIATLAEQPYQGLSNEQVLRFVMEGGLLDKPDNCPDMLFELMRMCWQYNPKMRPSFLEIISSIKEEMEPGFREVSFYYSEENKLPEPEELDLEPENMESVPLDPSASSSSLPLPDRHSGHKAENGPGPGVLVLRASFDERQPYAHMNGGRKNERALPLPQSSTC
PHKG1 (human), sequence (Q16816 whole entry, looked up): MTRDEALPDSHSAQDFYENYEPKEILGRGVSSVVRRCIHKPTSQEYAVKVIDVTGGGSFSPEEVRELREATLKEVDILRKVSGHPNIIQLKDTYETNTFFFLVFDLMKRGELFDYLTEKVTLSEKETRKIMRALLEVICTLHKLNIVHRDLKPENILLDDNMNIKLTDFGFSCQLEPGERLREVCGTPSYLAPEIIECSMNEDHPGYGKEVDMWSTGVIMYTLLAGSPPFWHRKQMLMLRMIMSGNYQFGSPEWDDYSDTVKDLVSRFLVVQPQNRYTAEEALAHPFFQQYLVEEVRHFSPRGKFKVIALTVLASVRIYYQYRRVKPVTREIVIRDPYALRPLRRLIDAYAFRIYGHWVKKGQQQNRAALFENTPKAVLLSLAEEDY
SRC (human), sequence (P12931 whole entry, looked up): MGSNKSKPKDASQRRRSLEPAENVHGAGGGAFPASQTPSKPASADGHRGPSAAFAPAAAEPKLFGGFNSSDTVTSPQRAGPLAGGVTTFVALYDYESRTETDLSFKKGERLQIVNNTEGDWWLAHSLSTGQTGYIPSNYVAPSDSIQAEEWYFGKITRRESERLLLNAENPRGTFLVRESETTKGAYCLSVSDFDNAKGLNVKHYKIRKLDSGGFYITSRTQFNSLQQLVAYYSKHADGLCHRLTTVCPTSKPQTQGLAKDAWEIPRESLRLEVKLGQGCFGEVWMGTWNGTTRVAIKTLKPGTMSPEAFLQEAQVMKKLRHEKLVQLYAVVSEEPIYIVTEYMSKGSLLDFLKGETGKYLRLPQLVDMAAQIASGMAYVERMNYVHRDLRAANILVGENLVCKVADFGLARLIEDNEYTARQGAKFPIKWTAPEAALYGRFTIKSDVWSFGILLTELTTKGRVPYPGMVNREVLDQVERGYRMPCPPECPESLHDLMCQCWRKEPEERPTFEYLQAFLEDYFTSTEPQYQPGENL
MARK2 (human), sequence (Q7KZI7 whole entry, looked up): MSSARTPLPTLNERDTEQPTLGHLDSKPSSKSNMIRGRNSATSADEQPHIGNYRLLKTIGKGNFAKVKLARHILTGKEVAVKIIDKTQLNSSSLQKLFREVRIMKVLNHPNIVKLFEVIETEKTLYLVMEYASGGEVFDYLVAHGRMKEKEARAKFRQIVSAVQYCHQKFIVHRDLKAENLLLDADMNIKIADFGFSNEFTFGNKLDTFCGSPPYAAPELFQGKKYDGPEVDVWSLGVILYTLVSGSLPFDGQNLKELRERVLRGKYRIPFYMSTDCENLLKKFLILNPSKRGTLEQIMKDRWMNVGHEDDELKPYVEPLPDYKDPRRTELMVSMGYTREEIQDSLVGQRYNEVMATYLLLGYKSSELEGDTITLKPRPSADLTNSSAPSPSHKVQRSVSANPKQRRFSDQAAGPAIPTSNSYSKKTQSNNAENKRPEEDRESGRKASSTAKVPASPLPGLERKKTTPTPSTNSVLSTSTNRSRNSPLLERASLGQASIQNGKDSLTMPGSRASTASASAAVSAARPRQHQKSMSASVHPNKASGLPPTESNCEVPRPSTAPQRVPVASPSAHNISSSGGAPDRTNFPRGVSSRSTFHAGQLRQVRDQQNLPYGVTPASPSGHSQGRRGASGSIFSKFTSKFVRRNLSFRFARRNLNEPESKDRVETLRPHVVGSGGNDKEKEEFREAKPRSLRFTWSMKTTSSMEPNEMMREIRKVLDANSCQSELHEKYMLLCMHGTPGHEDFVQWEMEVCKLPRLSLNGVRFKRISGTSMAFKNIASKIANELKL
MKNK1 (human), sequence (Q9BUB5 whole entry, looked up): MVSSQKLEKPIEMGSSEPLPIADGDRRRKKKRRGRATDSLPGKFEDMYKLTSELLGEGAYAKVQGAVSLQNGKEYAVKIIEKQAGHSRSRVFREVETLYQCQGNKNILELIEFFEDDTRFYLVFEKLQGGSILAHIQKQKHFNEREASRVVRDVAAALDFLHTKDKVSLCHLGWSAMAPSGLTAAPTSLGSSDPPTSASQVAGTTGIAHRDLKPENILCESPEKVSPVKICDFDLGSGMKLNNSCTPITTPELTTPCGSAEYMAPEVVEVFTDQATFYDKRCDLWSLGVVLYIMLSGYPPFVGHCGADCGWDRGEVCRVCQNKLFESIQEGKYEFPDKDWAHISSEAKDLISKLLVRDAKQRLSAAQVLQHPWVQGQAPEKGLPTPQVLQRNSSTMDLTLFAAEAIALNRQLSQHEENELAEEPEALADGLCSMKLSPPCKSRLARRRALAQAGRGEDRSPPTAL
MAPKAPK2 (human), sequence (P49137 whole entry, looked up): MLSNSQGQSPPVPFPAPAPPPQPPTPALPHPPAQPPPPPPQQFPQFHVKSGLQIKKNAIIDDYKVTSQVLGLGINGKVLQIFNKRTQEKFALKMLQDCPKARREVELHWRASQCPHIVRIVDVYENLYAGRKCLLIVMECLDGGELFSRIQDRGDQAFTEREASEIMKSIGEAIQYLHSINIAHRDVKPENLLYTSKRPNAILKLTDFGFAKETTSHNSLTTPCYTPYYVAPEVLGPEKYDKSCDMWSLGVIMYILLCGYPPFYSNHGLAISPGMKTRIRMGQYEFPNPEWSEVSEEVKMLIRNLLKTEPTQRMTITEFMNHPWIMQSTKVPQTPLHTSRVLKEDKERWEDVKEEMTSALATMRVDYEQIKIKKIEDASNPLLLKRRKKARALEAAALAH
CHEK2 (human), sequence (O96017 whole entry, looked up): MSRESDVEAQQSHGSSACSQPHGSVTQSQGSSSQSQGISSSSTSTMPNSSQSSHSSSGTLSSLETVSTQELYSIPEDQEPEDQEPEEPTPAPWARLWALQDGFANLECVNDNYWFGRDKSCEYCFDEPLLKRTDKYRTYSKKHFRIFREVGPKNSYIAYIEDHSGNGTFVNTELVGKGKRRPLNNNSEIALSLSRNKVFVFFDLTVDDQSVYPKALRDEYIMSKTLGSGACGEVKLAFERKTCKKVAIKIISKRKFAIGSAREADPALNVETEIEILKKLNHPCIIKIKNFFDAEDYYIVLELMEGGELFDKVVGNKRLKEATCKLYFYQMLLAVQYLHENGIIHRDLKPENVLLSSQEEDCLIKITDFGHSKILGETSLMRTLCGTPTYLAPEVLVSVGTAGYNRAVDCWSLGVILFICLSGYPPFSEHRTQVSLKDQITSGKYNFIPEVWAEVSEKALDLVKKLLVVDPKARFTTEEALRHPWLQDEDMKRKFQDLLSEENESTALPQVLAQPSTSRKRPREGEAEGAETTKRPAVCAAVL

CCCCCc1ccc(/C=C/[C@H](O)[C@@H](CO)NC)cc1
residual activity ([1]; compound 0.1 µM): 85% | residual activity ([1]; compound 1.0 µM): 90% | residual activity ([1]; compound 10.0 µM): 86% | residual activity (AURKB (human); compound 0.1 µM): 100% | residual activity (AURKB (human); compound 1.0 µM): 102% | residual activity (AURKB (human); compound 10.0 µM): 93% | residual activity (CAMKK2 (human); compound 0.1 µM): 97% | residual activity (CAMKK2 (human); compound 1.0 µM): 81% | residual activity (CAMKK2 (human); compound 10.0 µM): 90% | residual activity (CHEK1 (human); compound 0.1 µM): 96% | residual activity (CHEK1 (human); compound 1.0 µM): 92% | residual activity (CHEK1 (human); compound 10.0 µM): 86% | residual activity (CHEK2 (human); compound 0.1 µM): 92% | residual activity (CHEK2 (human); compound 1.0 µM): 84% | residual activity (CHEK2 (human); compound 10.0 µM): 82% | residual activity (EPHB4 (human); compound 0.1 µM): 122% | residual activity (EPHB4 (human); compound 1.0 µM): 101% | residual activity (EPHB4 (human); compound 10.0 µM): 123% | residual activity (GCK (human); compound 0.1 µM): 86% | residual activity (GCK (human); compound 1.0 µM): 72% | residual activity (GCK (human); compound 10.0 µM): 71% | residual activity (IGF1R (human); compound 0.1 µM): 87% | residual activity (IGF1R (human); compound 1.0 µM): 86% | residual activity (IGF1R (human); compound 10.0 µM): 93% | residual activity (IKBKB (human); compound 0.1 µM): 91% | residual activity (IKBKB (human); compound 1.0 µM): 97% | residual activity (IKBKB (human); compound 10.0 µM): 100% | residual activity (MAP2K1 (human); compound 0.1 µM): 97% | residual activity (MAP2K1 (human); compound 1.0 µM): 102% | residual activity (MAP2K1 (human); compound 10.0 µM): 97% | residual activity (MAP3K1 (human); compound 0.1 µM): 93% | residual activity (MAP3K1 (human); compound 1.0 µM): 99% | residual activity (MAP3K1 (human); compound 10.0 µM): 89% | residual activity (MAP3K5 (human); compound 0.1 µM): 115% | residual activity (MAP3K5 (human); compound 1.0 µM): 99% | residual activity (MAP3K5 (human); compound 10.0 µM): 94% | residual activity (MAPK1 (human); compound 0.1 µM): 98% | residual activity (MAPK1 (human); compound 1.0 µM): 90% | residual activity (MAPK1 (human); compound 10.0 µM): 100% | residual activity (MAPK10 (human); compound 0.1 µM): 93% | residual activity (MAPK10 (human); compound 1.0 µM): 103% | residual activity (MAPK10 (human); compound 10.0 µM): 98% | residual activity (MAPK15 (human); compound 0.1 µM): 82% | residual activity (MAPK15 (human); compound 1.0 µM): 86% | residual activity (MAPK15 (human); compound 10.0 µM): 77% | residual activity (MAPK3 (human); compound 1.0 µM): 97% | residual activity (MAPK3 (human); compound 10.0 µM): 85% | residual activity (MAPK9 (human); compound 0.1 µM): 85% | residual activity (MAPK9 (human); compound 1.0 µM): 90% | residual activity (MAPK9 (human); compound 10.0 µM): 88% | residual activity (MAPKAPK2 (human); compound 0.1 µM): 98% | residual activity (MAPKAPK2 (human); compound 1.0 µM): 95% | residual activity (MAPKAPK2 (human); compound 10.0 µM): 91% | residual activity (MARK2 (human); compound 0.1 µM): 89% | residual activity (MARK2 (human); compound 1.0 µM): 97% | residual activity (MARK2 (human); compound 10.0 µM): 83% | residual activity (MINK1 (human); compound 0.1 µM): 107% | residual activity (MINK1 (human); compound 1.0 µM): 93% | residual activity (MINK1 (human); compound 10.0 µM): 111% | residual activity (MKNK1 (human); compound 0.1 µM): 101% | residual activity (MKNK1 (human); compound 1.0 µM): 92% | residual activity (MKNK1 (human); compound 10.0 µM): 93% | residual activity (MKNK2 (human); compound 0.1 µM): 111% | residual activity (MKNK2 (human); compound 1.0 µM): 98% | residual activity (MKNK2 (human); compound 10.0 µM): 102% | residual activity (NEK2 (human); compound 0.1 µM): 110% | residual activity (NEK2 (human); compound 1.0 µM): 103% | residual activity (NEK2 (human); compound 10.0 µM): 108% | residual activity (NTRK1 (human); compound 0.1 µM): 103% | residual activity (NTRK1 (human); compound 1.0 µM): 110% | residual activity (NTRK1 (human); compound 10.0 µM): 86% | residual activity (PHKG1 (human); compound 0.1 µM): 99% | residual activity (PHKG1 (human); compound 1.0 µM): 86% | residual activity (PHKG1 (human); compound 10.0 µM): 76% | residual activity (PIM2 (human); compound 0.1 µM): 103% | residual activity (PIM2 (human); compound 1.0 µM): 109% | residual activity (PIM2 (human); compound 10.0 µM): 97% | residual activity (PKN2 (human); compound 0.1 µM): 78% | residual activity (PKN2 (human); compound 1.0 µM): 70% | residual activity (PKN2 (human); compound 10.0 µM): 58% | residual activity (PRKAA1 or PRKAA2 (rat); compound 0.1 µM): 104% | residual activity (PRKAA1 or PRKAA2 (rat); compound 1.0 µM): 96% | residual activity (PRKAA1 or PRKAA2 (rat); compound 10.0 µM): 94% | residual activity (PRKACA (human); compound 0.1 µM): 110% | residual activity (PRKACA (human); compound 1.0 µM): 106% | residual activity (PRKACA (human); compound 10.0 µM): 107% | residual activity (PRKCA (human); compound 0.1 µM): 96% | residual activity (PRKCA (human); compound 1.0 µM): 88% | residual activity (PRKCA (human); compound 10.0 µM): 89% | residual activity (RPS6KA1 KD1 KD2 (human); compound 0.1 µM): 95% | residual activity (RPS6KA1 KD1 KD2 (human); compound 1.0 µM): 98% | residual activity (RPS6KA1 KD1 KD2 (human); compound 10.0 µM): 81% | residual activity (SRC (human); compound 0.1 µM): 105% | residual activity (SRC (human); compound 1.0 µM): 100% | residual activity (SRC (human); compound 10.0 µM): 111% | residual activity ([2]; compound 0.1 µM): 93% | residual activity ([2]; compound 1.0 µM): 89% | residual activity ([2]; compound 10.0 µM): 98% | residual activity (STK3 (human); compound 0.1 µM): 96% | residual activity (STK3 (human); compound 1.0 µM): 90% | residual activity (STK3 (human); compound 10.0 µM): 94% | residual activity (YES1 (human); compound 0.1 µM): 123% | residual activity (YES1 (human); compound 1.0 µM): 100% | residual activity (YES1 (human); compound 10.0 µM): 109%
